For the first experiment, the target named is T1, C-C chemokine receptor type 1 (Homo sapiens, UniProt P32246).
T1 sequence (P32246 whole entry): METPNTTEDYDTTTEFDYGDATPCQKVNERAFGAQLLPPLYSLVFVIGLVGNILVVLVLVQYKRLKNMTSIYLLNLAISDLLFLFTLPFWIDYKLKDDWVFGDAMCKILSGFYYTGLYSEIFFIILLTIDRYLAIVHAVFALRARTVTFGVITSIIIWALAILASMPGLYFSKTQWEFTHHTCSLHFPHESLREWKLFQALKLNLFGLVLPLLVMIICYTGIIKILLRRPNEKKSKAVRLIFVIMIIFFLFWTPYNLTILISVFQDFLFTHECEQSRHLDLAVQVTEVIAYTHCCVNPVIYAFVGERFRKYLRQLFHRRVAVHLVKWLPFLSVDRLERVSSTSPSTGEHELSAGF
The experiment is described as follows: Displacement of [125I]-MIP-1alpha 125I]-MCP1 from CCR1 expressed in CHO-K1 cells by scintillation proximity assay. In kind it is cell-based.
Chain of C-C chemokine receptor type 5 (P51681 whole entry): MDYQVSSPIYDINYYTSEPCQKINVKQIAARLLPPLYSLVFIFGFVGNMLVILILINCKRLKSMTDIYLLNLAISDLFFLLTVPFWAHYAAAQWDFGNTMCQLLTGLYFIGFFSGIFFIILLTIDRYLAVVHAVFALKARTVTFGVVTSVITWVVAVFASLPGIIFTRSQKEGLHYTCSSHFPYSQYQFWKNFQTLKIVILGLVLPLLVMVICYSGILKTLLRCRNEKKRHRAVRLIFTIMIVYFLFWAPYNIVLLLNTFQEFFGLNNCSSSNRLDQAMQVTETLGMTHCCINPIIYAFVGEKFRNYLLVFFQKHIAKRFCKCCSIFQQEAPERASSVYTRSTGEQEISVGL
By IC50 is commonly meant the concentration at which inhibition is half-maximal. Higher therefore signals lower potency. In the case of `O=C(NCCCCN1CCC(Oc2ccc(F)cc2)C1)NCc1ccc(Br)cc1` (configuration not stated), the IC50 amounted to 387 nM. On the same count and under the same terms, the value for `Cc1noc(C)c1S(=O)(=O)NCCCN1CCC(O)(c2ccc(Cl)cc2)CC1` was 261 nM.

A further experiment deals with C-C chemokine receptor type 2 (Homo sapiens, UniProt P41597). The experiment is described as follows: Displacement of [125I]-MIP-1alpha 125I]-MCP1 from CCR2 expressed in CHO ducX#98 cells by scintillation proximity assay. The class given is cell-based. For orientation: In a radioligand displacement assay an active substance lowers the binding of a labelled ligand.
Chain of C-C chemokine receptor type 2 (P41597 whole entry): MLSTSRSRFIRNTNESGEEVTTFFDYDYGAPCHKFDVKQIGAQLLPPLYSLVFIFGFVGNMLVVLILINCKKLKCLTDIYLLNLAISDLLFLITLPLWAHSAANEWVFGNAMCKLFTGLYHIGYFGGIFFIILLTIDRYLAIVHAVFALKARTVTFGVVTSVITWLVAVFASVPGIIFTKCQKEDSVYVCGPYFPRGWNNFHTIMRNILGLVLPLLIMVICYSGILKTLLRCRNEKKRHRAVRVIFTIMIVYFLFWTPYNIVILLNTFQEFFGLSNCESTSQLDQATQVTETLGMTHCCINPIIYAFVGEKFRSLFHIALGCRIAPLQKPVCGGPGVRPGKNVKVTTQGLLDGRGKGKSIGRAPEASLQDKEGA
Turning to `O=C(NCCCCN1CCC(Cc2ccc(F)cc2)CC1)Nc1ccc(OC(F)(F)F)cc1`, the half-maximal inhibitory concentration (IC50) worked out at 1880 nM.

`O=C(NCCCN1CCC(c2ccc(F)cc2)CC1)C1=Cc2cc(Br)ccc2OCC1` returned an IC50 of 925 nM.

The target of the next experiment is T2, C-C chemokine receptor type 3 (Homo sapiens, UniProt P51677).
T2 sequence (P51677 whole entry): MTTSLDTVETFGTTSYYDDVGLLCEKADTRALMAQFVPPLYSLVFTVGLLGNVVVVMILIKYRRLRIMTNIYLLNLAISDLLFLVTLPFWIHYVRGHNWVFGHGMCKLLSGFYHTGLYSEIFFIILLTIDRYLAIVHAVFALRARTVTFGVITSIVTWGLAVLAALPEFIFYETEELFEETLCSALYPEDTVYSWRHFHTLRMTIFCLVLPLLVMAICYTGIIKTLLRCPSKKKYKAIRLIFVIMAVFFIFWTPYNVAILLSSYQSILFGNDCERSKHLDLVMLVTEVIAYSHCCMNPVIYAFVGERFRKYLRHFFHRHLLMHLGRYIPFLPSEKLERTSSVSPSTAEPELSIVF
The experiment is described as follows: Displacement of [125I]-eotaxin from CCR3 expressed in RBL-2H3 cells by scintillation proximity assay. In kind it is cell-based.
The compound `O=C(NCCCN1CCC(c2ccc(F)cc2)CC1)C1=Cc2cc(Br)ccc2OCC1` returned a concentration for half-maximal inhibition (IC50) of 1000 nM.

Turning to `COc1ccc(OC)c(S(=O)(=O)N2CCC(CN3CCC(Cc4ccc(F)cc4)CC3)CC2)c1`, the IC50 came out at 1190 nM. Still for that read-out and setting: for `COc1ccc(OC)c(S(=O)(=O)N2CCC(CN3CCN(Cc4ccc(F)cc4)CC3)CC2)c1` the value was 65 nM; for `COc1ccc(Cl)cc1NC(=O)NCCCCN(C)Cc1ccc(F)cc1`, 82 nM. Still for that read-out and setting: for `O=C(NCCCCN1CCC(Oc2ccc(F)cc2)C1)Nc1ccc(F)c(F)c1` (configuration not stated) the value was 76 nM.

Another experiment addresses C-C chemokine receptor type 5 (Homo sapiens, UniProt P51681). Briefly: Displacement of [125I]-MIP-1- alpha from CCR5 expressed in CHO K1 cells by scintillation proximity assay. The class given is cell-based.
Consider `COc1ccc(C)cc1S(=O)(=O)N1CCC(CN2CCC(c3ccc(F)cc3)CC2)CC1`, for which the half-inhibitory concentration (IC50) was 1300 nM. Compound `COc1ccc(OC)c(S(=O)(=O)N2CCC(CN3CCC(Cc4ccc(F)cc4)CC3)CC2)c1` came in with an IC50 of 2850 nM. The same measure, in the same setting: for `N#Cc1cccc(C(=O)NCCCN2CCC(COCc3ccc(F)cc3)CC2)c1` the value was 1000 nM.

The values are drawn from ChEMBL document CHEMBL1909560, “Design and synthesis of a library of chemokine antagonists” (Bioorg Med Chem Lett, 2011).
